# Measurements reported in US11958842B2, “Substituted phenazines and methods of treating cancer and bacterial diseases” (Adjutec Pharma AS, priority 2016, dated 2024).
# Where two headings read alike, the source gives them in different places.
# Tests used:
# [1] = test system: normal rat kidney epithelial (NRK) cells; test: Cytotoxicity, WST-1 and nuclear morphology (Example 73); format: cell-based
# Protocol: (§1) All cell culturing media and serum were from Sigma-Aldrich (St. Louis, Mo., USA). Product Nos. are given in parentheses. The human acute myeloid leukemia cell line MOLM-13 was cultured in RPMI medium (R5886) enriched with […] (F7524) and 0.2 mM L-glutamine (G7513). The normal rat kidney epithelial (NRK) and the rat cardiomyoblast (H9c2) cells were cultured in DMEM medium (D6429) enriched with 10% fetal bovine serum (F7524). All cell lines were additionally supplemented with 100 IU/mL penicillin and […] (P0781). The cells were cultured in a humidified atmosphere either under 2% or 20% O2 at 37° C.
# (§2) All analogues were dissolved in DMSO (D5879, Sigma-Aldrich) at concentrations between 2.5 and 20 mM before testing. For cytotoxic testing, the MOLM-13 cells were seeded as 20,000 cells/well, while NRK and H9c2 cells were seeded as 5,000 cells/well in 96-well Microplates (#167008, Thermo Scientific™ Nunc™ MicroWell™) with 100 μL medium/well. The cells were exposed to various concentrations of iodinin or its analogues for 24 hrs before the cell proliferation reagent WST-1 was used to assess the viability, in accordance with the manufacturer's instructions (11644807001, Roche Diagnostics, Sigma-Aldrich). The cells were next fixed in 2% buffered formaldehyde (pH 7.4) with the DNA-specific dye Hoechst 33342 (Polysciences Inc.) and assessed for cell death by UV-microscopy based on nuclear morphology. The highest concentration of analogue corresponded to 1% of DMSO, which alone gave less than 7% cell death as judged by nuclear morphology.
# (§3) EC50 values were determined by analyses of WST-1 signal results as well as microscopic evaluation of cell death by four-parameter regression analyses using the SigmaPlot software (Systat Software inc. San Jose, Calif.):
# (§4) [formula] where Y is the response (WST-1 signal or percent apoptosis), min and max are minimum and maximum response, X is concentration of analogue, EC50 equals the point of inflection, i.e. the point that gives half of maximum response, and h is the Hill's slope of the curve. The two methods gave consistent response curves for each analogue. In the case of Tirapazamine, where its colour interfered with the WST-1 signal, only microscopic evaluation of Hoechst stained cells was used in order to calculate its EC50 values.
# [2] = test system: rat cardiomyoblast (H9c2) cells; test: as above; format: cell-based; settings: read-out: EC50 (μM) H9c2 19% O2
# Protocol: as §1, §2, §3, §4
# [3] = test system: human acute myeloid leukemia cell line MOLM-13; test: as above; format: cell-based
# Protocol: as §1, §2, §3, §4
# [4] = Parallel artificial membrane permeability assay (PAMPA); settings: for Permeability: PAMPA class by ranges of Bennion et al.; for LogPeff: PAMPA, 50 μM in PBS, room temperature, five hours
# Protocol: The Corning Gentest™ pre-Coated parallel artificial membrane permeability assay PAMPA Plate System was from Cording Discovery Labware (Bedford, USA). The compounds were tested in room temperature at 50 μM using PBS as buffer. A total of 300 μl of the compound solution was added to each well of the donor plate, and 200 μl of PBS was added to the receiver filter plate. After incubation for five hours, 50 μl of the donor or acceptor well were injected into a reversed phase HPLC column (Kromasil 100-5 C18 150-4.6 mm, Akzo Nobel, Sweden) connected to a Merck-Hitachi LaChrome HPLC-system (VWR, WestChester, USA) with a L-7455 diode array detector. Mobile phase A was 0.05% aqueous TFA, and mobile phase B was acetonitrile. The flow rate was 1.6 ml/min and compounds eluted between 1 and 4.5 minutes was eluted during a 6.5 min gradient from 90:10% mobile phase A:B to 0:100% mobile phase A:B. The ratio of the compound concentrations in the donor and acceptor compartment was calculated after integration of the peaks at 285 nm. Peff was calculated as described in [Bennion B J, Be N A, McNerney M W, Lao V, Carlson E M, Valdez C A, et al. Predicting a Drug's Membrane Permeability: A Computational Model Validated With in Vitro Permeability Assay Data. The journal of physical chemistry B. 2017; 121(20):5228-37.]. Membrane permeability were classified by the range defined by Bennion et al., allowing for us to divide the compounds into four groups, compounds with high permeability (LogPeff>−5.33), intermediate permeability (LogPeff>−5.66 and <−5.33), low permeability (LogPeff>−6.14 and <−5.66) impermeable (LogPeff<−6.14).
# hepG2 = test: Cytotoxicity (Example 73, Table 2); format: cell-based; settings: Homo sapiens, read-out: EC50 (μM) hepG2
# Molm13 cells = test: Anti-AML activity, WST-1 viability (Example 72); format: cell-based; settings: Homo sapiens, MOLM-13, 24 h
# Protocol: Dry powder of analogs were dissolved in DMSO. IPC-18 rat AML cells (Lacaze, N. et al. Leuk. Res. 1983, 7, 145.) were cultured in DMEM medium (Sigma-Aldrich, St. Louis, Mo., USA) supplemented with 10% horse serum (Invitrogen, Carlsbad, Calif., USA), and antibiotics (50 U/mL of penicillin and 0.05 mg/mL streptomycin). Molm13 (Matsuo, Y. et al. Leukemia 1997, 11, 1469.) cells were cultured in RPMI supplemented with antibiotics (50 U/mL of penicillin and 0.05 mg/mL streptomycin) and 10% fetal bovine serum (FBS, Invitrogen, Carlsbad, Calif.) and kept in exponential growth before the experiments. Dilution series of iodinin analogs were added to medium and cell suspension added to reach a final cell concentration of 150 000 cells/ml in 0.1 mL in a 96 well tissue culture plate. […] The cells were incubated with the iodinin analogs for 22 h before WST-1 was added according to the manufacturers protocol, and the cells incubated further in 2 h. Mitochondrial conversion of WST-1 to its colored metabolite was measured by a plate reader at 450 nm, with 620 nm as the reference wavelength. The cells were next fixed by adding 4% buffered formaldehyde (PBS, pH 7.4, supplemented with 0.01 mg/mL Hoechst 33342 for nuclear visualization) to the cell suspension at 1:1 (v/v) ratio (final concentration of formaldehyde:[…]). The cells' nuclear and surface morphology were examined microscopically and results compared with the WST-1 viability assay. The results given in Table I are based on WST-1 data.
# [5] = test system: methicillin-resistant S. aureus MRSA A4-37; test: Microbroth dilution MIC; format: cell-based; settings: compound alone
# Protocol: (§5) Day 1: • Plate bacterial strain(s) on appropriate media: • Gram-negative bacteria with ESBLs or carbapenemases: green agar plates with 100 mg/L ampicillin • Gram-negative bacteria without β-lactamases: green agar plates • Gram-positive bacteria (Staphylococci and Enterococci): blood agar plates • Incubate o.n. at 37° C.
# (§6) Prepare the Bacterial Inoculum: • Prepare a 0.5 McFarland suspension of bacteria in 0.85% NaCl. (Should be used within 15 min of preparation). • Dilute the 0.5 McFarland suspension 1:100 into MH broth.
# (§7) Check the inoculum by diluting the prepared bacterial suspension 1:100 (10 μl bacterial suspension+990 μl 0.85% NaCl). Plate 10 μl of the dilution on MH agar plates (×2). Incubate o.n. at 37° C., count the colonies and calculate the final CFU/ml inoculum in the plate by multiplying the average number of colonies with 10000 and divide by 2. The final inoculum should be between 3-7×10^5 CFU/ml. • Add 50 μl of the prepared bacterial suspension to each well in the microtiter plate except negative growth control.
# (§8) Preparation of Compounds/Antibiotics • Calculate the desired concentration-range and volume of the compounds/antibiotics in the assay. For antibiotics this will depend on the MIC to meropenem of the bacterial strains to be tested. Dilute the stock solution in MH broth. Make subsequent 2-fold dilutions in MH broth of the desired concentrations if a concentration range is to be tested (remember the extra dilution factor in the assay plate). Always include extra volume for pipetting. Take into consideration stock solutions that are made in buffers that have an effect on bacterial growth (e.g. DMSO).
# (§9) This experimental design was used for the results in Tables 4 and 5 below. In Table 4, inhibitor concentration dependency on the MIC of meropenem was studied.
# [6] = test system: vancomycin-resistant E. faecium vanA A1-22; test: Microbroth dilution MIC; format: cell-based; settings: compound alone
# Protocol: as §5, §6, §7, §8, §9
# [7] = Rattus norvegicus, 24 h, read-out: EC50 (μM) NRK 2% O2, NRK, 2% O2, 24 hours of incubation
# [8] = Rattus norvegicus, 24 h, read-out: EC50 (μM) NRK 19% O2, NRK, 19% O2, 24 hours of incubation
# [9] = H9c2, 19% O2, 24 hours of incubation
# [10] = MOLM-13, 2% O2, 24 hours of incubation, read-out: EC50 (μM) MOLM-13 2% O2
# [11] = MOLM-13, 19% O2, 24 hours of incubation, read-out: EC50 (μM) MOLM-13 19% O2
# [12] = read-out: EC50 (μM) NRK 2% O2, 2% O2, 24 hours of incubation
# [13] = read-out: EC50 (μM) NRK 19% O2, 19% O2, 24 hours of incubation
smiles,measurement,setting,value
"CCOC(=O)COc1cccc2c1[n+]([O-])c1cc(Cl)c(Cl)cc1[n+]2[O-] [Example 6c, 7,8-dichloro-1-(2-ethoxy-2-oxoethoxy)phenazine 5,10-dioxide]",EC50,"[1]; Rattus norvegicus, 2% O2, 24 hours of incubation, read-out: EC50 (μM) NRK 2% O2",4.7 ± 0.09 µM
same,EC50,"[1]; Rattus norvegicus, 19% O2, 24 hours of incubation, read-out: EC50 (μM) NRK 19% O2",3.1 ± 0.02 µM
same,EC50,"[2]; Rattus norvegicus, H9c2, 19% O2, 24 hours of incubation",1.3 ± 0.2 µM
same,EC50,"[3]; Homo sapiens, MOLM-13, 2% O2, 24 hours of incubation, read-out: EC50 (μM) MOLM-13 2% O2",0.38 ± 0.04 µM
same,EC50,"[3]; Homo sapiens, MOLM-13, 19% O2, 24 hours of incubation, read-out: EC50 (μM) MOLM-13 19% O2",0.41 ± 0.05 µM
same,Permeability,[4],Intermediate/high
same,LogPeff,[4],−5.42
same,EC50,"hepG2; hepG2, 24 hours of incubation",12 µM
"COc1cccc2c1[n+]([O-])c1cccc(OC(=O)N3CCN(C)CC3)c1[n+]2[O-] [Example 8b, 1-methoxy-6-((4-methylpiperazine-1-carbonyl)oxy)phenazine 5,10-dioxide]",EC50,[1]; [7],39 ± 4.2 µM
same,EC50,[1]; [8],26 ± 2.1 µM
same,EC50,[2]; [9],26 ± 0.9 µM
same,EC50,[3]; [10],0.98 ± 0.08 µM
same,EC50,[3]; [11],1 ± 0.06 µM
same,LogPeff,[4],−5.77
same,EC50,"hepG2; HepG2, 24 h",90 µM
"CN1CCN(C(=O)Oc2cccc3c2[n+]([O-])c2ccccc2[n+]3[O-])CC1 [Example 8c, 1-((4-methylpiperazine-1-carbonyl)oxy)phenazine 5,10-dioxide]",EC50,[1]; [7],37 ± 1.9 µM
same,EC50,[1]; [8],25 ± 0.2 µM
same,EC50,[2]; [9],36 ± 11 µM
same,EC50,[3]; [10],1.9 ± 0.05 µM
same,EC50,[3]; [11],1.5 ± 0.18 µM
same,IC50,Molm13 cells; read-out: Molm 13 IC50 20% O2,0.35 µM
same,MIC A4-37 S. aureus MRSA,[5],< 4 µg/mL
same,MIC A1-22 E. faecium vanA,[6],8 µg/mL
"CN1CCN(C(=O)Oc2cccc3c2[n+]([O-])c2cc4ccccc4cc2[n+]3[O-])CC1 [Example 8e, 1-((4-methylpiperazine-1-carbonyl)oxy)benzo[b]phenazine 5,12-dioxide]",EC50,[1]; [12],15 ± 1.8 µM
same,EC50,[1]; [13],10 ± 0.9 µM
same,EC50,"[2]; Rattus norvegicus, H9c2, 24 h",3.2 ± 0.1 µM
same,EC50,"[3]; Homo sapiens, MOLM-13, 24 h, read-out: EC50 (μM) MOLM-13 2% O2",0.32 ± 0.06 µM
same,EC50,"[3]; Homo sapiens, MOLM-13, 24 h, read-out: EC50 (μM) MOLM-13 19% O2",0.34 ± 0.04 µM
same,Permeability,[4],Intermediate/high
same,LogPeff,[4],−5.38
same,EC50,"hepG2; HepG2, 24 h",45 µM
"CCN(CC)C(=O)Oc1cccc2c1[n+]([O-])c1cccc(O)c1[n+]2[O-] [Example 8i, 1-((diethylcarbamoyl)oxy)-6-hydroxyphenazine 5,10-dioxide]",IC50,Molm13 cells; read-out: Molm 13 IC50 2% O2,0.74 µM
same,IC50,Molm13 cells; read-out: Molm 13 IC50 20% O2,0.76 µM
same,MIC A4-37 S. aureus MRSA,[5],< 4 µg/mL
same,MIC A1-22 E. faecium vanA,[6],8 µg/mL
"COc1cccc2c1[n+]([O-])c1cccc(OC(=O)N(C)C)c1[n+]2[O-] [Example 8m, 1-((dimethylcarbamoyl)oxy)-6-methoxyphenazine 5,10-dioxide]",EC50,[1]; [7],29 ± 0.7 µM
same,EC50,[1]; [8],22 ± 1.7 µM
same,EC50,[2]; [9],35 ± 1.8 µM
same,EC50,[3]; [10],1.7 ± 0.09 µM
same,EC50,[3]; [11],1.9 ± 0.07 µM
same,MIC A4-37 S. aureus MRSA,[5],< 4 µg/mL
same,MIC A1-22 E. faecium vanA,[6],63 µg/mL
"COc1cccc2c1[n+]([O-])c1ccccc1[n+]2[O-] [Example 18, 1-methoxyphenazine 5,10-dioxide]",MIC A4-37 S. aureus MRSA,[5],< 2 µg/mL
same,MIC A1-22 E. faecium vanA,[6],32 µg/mL
"CN1CCN(C(=O)Oc2cccc3c2[n+]([O-])c2cc(Br)c(Br)cc2[n+]3[O-])CC1 [Example 59, 7,8-dibromo-1-((4-methylpiperazine-1-carbonyl)oxy)phenazine 5,10-dioxide]",EC50,[1]; [12],7.6 ± 0.6 µM
same,EC50,[1]; [13],6.2 ± 0.02 µM
same,EC50,[2]; [9],2.2 ± 0.53 µM
same,EC50,[3]; [10],0.23 ± 0.03 µM
same,EC50,[3]; [11],0.41 ± 0.04 µM
same,EC50,"hepG2; HepG2, 24 h",40 µM
